Earlier results as cited in US20040029723A1, “Novel aminophosphonium compounds” (Clariant GmbH, priority 1999, published 2004).

Settings: background statement, no test or data described

For `CCN(CC)[P+](N(CC)CC)(N(CC)CC)N(CC)CC.[Br-]` [Tetrakis(diethylamino)phosphonium Bromide], the dermal toxicity is listed as “very high”.
